# Source: patent US20260137687A1, “GTPase INHIBITORS AND USES THEREOF” (The Regents of The University of California, priority 2022, published 2026)
# Columns and labels:
# [1] = permeability controls; cited from earlier work
# [2] = target: T1, K-Ras(G12R)·GDP (Homo sapiens, UniProt P01116, G12R); assay: Intact protein mass spectrometry, covalent modification; assay type: binding; settings: 100 μM compound, pH 7.5, 23° C.; adducts +656 Da and +638 Da
# T1 construct: human K-Ras (G12R, aa 1-169); 6xHis tag + TEV cleavage site (N, cleaved yes); made in house; host or cells: E. coli BL21(DE3)
# Experimental: Purified K-Ras variants (4 μM final) were incubated with compounds at 50 or 100 μM (1% v/v DMSO final) in 20 mM HEPES pH 7.5, 150 mM NaCl, 1 mM MgCl2 in a total volume of 150 μL. After the noted time, the samples were analyzed by intact protein LC/MS using a Waters Xevo G2-XS system equipped with an Acquity UPLC BEH C4 1.7 μm column. The mobile phase was a linear gradient of 5-95% acetonitrile/water+0.05% formic acid. The spectra were processed using QuantLynx, giving the ion counts observed for the most abundant species. For assays conducted under an alternate pH, the HEPES buffer was replaced with one of the following buffers (maintaining 150 mM NaCl and 1 mM MgCl2): 20 mM MES pH 6 or 20 mM Tris pH 9.
# [3] = target: T2, K-Ras(G12R) Cyslight bound by GDP (Homo sapiens, UniProt P01116, C118S/C51S/C80L/G12R); assay: LC-MS analysis of adduct formation for crystallization; assay type: binding; settings: 100 μM protein, 200 μM compound, 23° C.
# T2 construct: human K-Ras G12R Cyslight (G12R/C51S/C80L/C118S, aa 1-169); 6xHis tag + TEV cleavage site (N, cleaved yes); made in house; host or cells: E. coli BL21(DE3)
# Experimental: K-Ras(G12R) Cyslight ([…]/C51S/C80L/C118S) bound by GDP purified by size exclusion chromatography was diluted to 100 μM in Reaction Buffer (20 mM HEPES 7.5, 150 mM NaCl, 1 mM MgCl2). […] The reaction mixture was purified by size exclusion chromatography (Superdex75, 20 mM HEPES 7.5, 150 mM NaCl, 1 mM MgCl2) and concentrated to 20 mg/mL. For crystallization, 0.1 μL of the protein was mixed with 0.1 μL well buffer containing 0.1 M MES pH 6.5, 30% w/v PEG 4K. Crystals were grown at 20° C. in a 96-well plate using the hanging-drop vapor diffusion method. Maximal crystal growth was achieved after 7 days. The crystals were transferred to a cryoprotectant solution (0.1 M MES pH 6.5, 30% w/v PEG 4K, 15% glycerol) and flash-frozen in liquid nitrogen.
# [4] = system: BaF3/G12R cells (±IL-3), TCC-Pan-2 cells, and A375 cells; assay: Cellular activity (phospho-ERK immunoblot, growth inhibition); assay type: cell-based; settings: at concentrations below 100 μM
# Experimental: When indicated, cells were treated with drugs at 40-60% confluency at a final DMSO concentration of 1%. At the end of treatment period, cells were placed on ice. Unless otherwise indicated, adherent cells were washed once with ice-cold PBS (1 mL), scraped with a spatula, and pelleted by centrifugation (500×g, 5 min). Suspension cells were pelleted by centrifugation (500×g, 5 min), washed with 1 mL ice-cold PBS, and pelleted again. Cells were lysed in RIPA buffer supplemented with protease and phosphatase inhibitors (cOmplete and phosSTOP, Roche) on ice for 10 min. Lysates were clarified by high-speed centrifugation (19,000×g, 10 min). Concentrations of lysates were determined with protein BCA assay (Thermo Fisher) and adjusted to 2 mg/mL with additional RIPA buffer (or Co-IP Lysis Buffer). Samples were mixed with 5×SDS Loading Dye and heated at 95° C. for 5 min.
# Cells were seeded into 96-well white flat bottom plates (1,000 cells/well) (Corning) and incubated overnight. Cells were treated with the indicated compounds in a nine-point threefold dilution series (100 μL final volume) and incubated for 72 h. Cell viability was assessed using a commercial CellTiter-Glo (CTG) luminescence-based assay (Promega). […] Plates were placed on an orbital shaker for 30 min before recording luminescence using a Spark 20M (Tecan) plate reader.
smiles,measurement,setting,value
O=C(N[C@H](CO)[C@H](O)c1ccc([N+](=O)[O-])cc1)C(Cl)Cl [Chloramphenicol],permeability class of PAMPA control,[1],high
O=C(O)Cc1ccccc1Nc1c(Cl)cccc1Cl [Diclofenac],permeability class of PAMPA control,[1],medium
"CC(=O)CC(=O)N1[C@@H]2CC[C@H]1CN(c1nc(OCC34CCCN3CCC4)nc3c(F)c(-c4cccc5cccc(Cl)c45)ncc13)C2 [compound 2, 1-((1R,5S)-3-(7-(8-chloronaphthalen-1-yl)-8-fluoro-2-((tetrahydro-1H-pyrrolizin-7a(5H)-yl)methoxy)pyrido[4,3-d]pyrimidin-4-yl)-3,8-diazabicyclo[3.2.1]octan-8-yl)butane-1,3-dione]",covalent adduct formation with recombinant K-Ras(G12R)·GDP,[2],did not form any detectable covalent adduct
"CC(=O)C(O)(O)C(=O)N1CCN(c2nc(OCC34CCCN3CCC4)nc3c(F)c(-c4cccc5cccc(Cl)c45)ncc23)C[C@@H]1CC#N [compound 4, (S)-2-(4-(7-(8-chloronaphthalen-1-yl)-8-fluoro-2-((tetrahydro-1H-pyrrolizin-7a(5H)-yl)methoxy)pyrido[4,3-d]pyrimidin-4-yl)-1-(2,2-dihydroxy-3-oxobutanoyl)piperazin-2-yl)acetonitrile]",conversion of K-Ras(G12R) Cyslight·GDP to covalent adduct,[3],full conversion to a single covalent adduct
same,cellular activity,[4],did not show cellular activity
